Results taken from patent US20240034717A1, “NOVEL POTASSIUM CHANNEL INHIBITORS” (Saniona A/S, priority 2020, published 2024).
Values joined by “and” are separate entries in the source; they are usually repeats but may differ in a detail not shown here. Equal entries are not always repeated.

Key:
[1] = target: erythrocyte KCa3.1 channels (Homo sapiens (Human), UniProt O15554); experiment: Erythrocyte KCa3.1 assay; assay type: cell-based; conditions: human erythrocytes, A23187-activated KCa3.1; read-out: RBC K (in vitro) Human IC50 (μM) Potency category
Experimental: Human blood was drawn from healthy human volunteers in a standard heparinized blood sampling vial (Vacutainer, Li/heparin, ED Bioscience, Plymouth, UK). The erythrocytes were packed by centrifugation, and the plasma and buffy coat were removed by aspiration. Erythrocytes were washed three times in the experimental salt solution and then stored at 0° C. until use. Blood samples from NMRI mice or from Wistar rats were treated similarly. The methodological principle is outlined in Macey et al. (1978) and further described in Strøbaek et al. (2013). Activation of the erythrocyte KCa3.1 channels were obtained by addition of the Ca^2+ ionophore A23187, which causes synchronized hyperpolarization, which is reported as a CCCP-mediated shift in the unbuffered extracellular pH of the erythrocyte suspension. Standard procedure: 3 mL unbuffered experimental salt solution (in mM: 2 KCl, 154 NaCl, 0.05 CaCl2) was heated to 37° C. with stirring. Packed erythrocytes were added (50 μL, final cytocrit 1.5%), and the extracellular pH (pHo) followed with a glass/calomel (pHG200-8/REF200, Radiometer, Denmark) electrode pair. CCCP (3 μL, final concentration 20 μM) was added followed by varying concentrations of test compounds (DMSO concentration constant). After pH stabilization at ˜7.2, A23187 (3 μL, final concentration 0.33 μM) was added to initiate the experiment. After the peak hyperpolarization was attained, the intracellular pH (pHi constant during the experiment) was found by haemolysing the erythrocytes via addition of 100 μL of Triton-X100.
The erythrocyte membrane potential, Vm, was calculated according to: […]
and the fractional remaining Ca^2+-activated K^+-conductance at the concentration C of blocker, fGK(C), was calculated from
where the K^+ equilibrium potential EK=−107 mV, the Cl^− equilibrium potential ECl=−12 mV and the Vm(0) and Vm(C) are the peak hyperpolarizations in the control and in the presence of a concentration of C of blocker respectively.
IC50 values for compounds were calculated from a plot of fGK(C) versus C by a fit to the Hill equation, using a custom program written in the IGOR-Pro software (WaveMetrics, Lake Oswego, OR, USA). All IC50-values are reported in μM.

[2] = physchem; conditions: for solubility at 16 h: 25 °C, pH 7.4, aqueous buffer, kinetic from dmso stock
Experimental: 2.79 g of K2HPO4 and 0.54 g of KH2PO4 was dissolved in 390 mL of milliQ water. pH was adjusted to 7.4 using 1N HCl/1N NaOH and final volume was made up to 400 mL with milliQ water.
In case of compounds not soluble/less quantity submission, 40/20/10Mm stocks were prepared and used for experiment.
Assay Procedure: • 245 μL of 50 mM phosphate buffer then 5 μL each of test compound/standards (80 mM) in their respective positions was added to the 1.1 mL 96 well plate. • DMSO Controls was prepared by taking 245 μL of 100% DMSO then 5 μL each of test compound in their respective positions and added to the 1.1 mL 96 well plate • Plate was incubated with mixing at 1600 RPM for 16 hours at room temperature (˜23 MC). • After incubation, samples were filtered using Millipore plates. • Filtrates were analysed by HPLC-UV.
Solubility is calculated using the following formula: […]

[3] = 50 mM potassium phosphate buffer pH 7.40, 16 hr at ~25° C., incubation concentration 1600 μM

| SMILES | IC50 [1] [µM] | solubility at 16 h [2] | Measured Solubility in pH 7.4 phosphate buffer (mg/ml) [2, 3] [mg/ml] | Measured Solubility in pH 7.4 phosphate buffer (μM) [2, 3] [μM] | Measured Solubility in pH 7.4 phosphate buffer (μM) ([2]; 16 h, pH 7.4) |
| --- | --- | --- | --- | --- | --- |
| CN1CCC1CN(CC(C)(C)O)C1(c2ccc(F)c(C(F)(F)F)c2)CC1 (stereo not drawn) [1-((1-(4-fluoro-3-(trifluoromethyl)phenyl)cyclopropyl)((1-methylazetidin-2-yl)methyl)amino)-2-methylpropan-2-ol] | < 1 | 597 µg/mL and 1600 µM | – | – | – |
| CC(C)(O)CN(CC1CCN1)C1(c2ccc(F)c(C(F)(F)F)c2)CC1 (stereo not drawn) [1-((azetidin-2-ylmethyl)(1-(4-fluoro-3-(trifluoromethyl)phenyl)cyclopropyl)amino)-2-methyl propan-2-ol] | < 0.3 | 755 µg/mL and 1600 µM | – | – | – |
| N[C@H]1CCC[C@H]1NC1(c2ccc(F)c(C(F)(F)F)c2)CC1 [(1R,2S)-N1-(1-(4-fluoro-3-(trifluoromethyl)phenyl)cyclopropyl)-cyclopentane-1,2-diamine] | < 0.3 | 480 µg/mL and 1400 µM | – | – | – |
| N[C@H]1CCC[C@@H]1NC1(c2ccc(F)c(C(F)(F)F)c2)CC1 [(1S,2S)-N1-(1-(4-fluoro-3-(trifluoromethyl)phenyl)cyclopropyl)-cyclopentane-1,2-diamine] | < 1 | 239 µg/mL and 700 µM | – | – | – |
| CN1CCC[C@H]1CN(C1(c2ccc(F)c(C(F)(F)F)c2)CC1)S(C)(=O)=O [(S)-N-(1-(4-fluoro-3-(trifluoromethyl)phenyl)cyclopropyl)-N-((1-methylpyrrolidin-2-yl)methyl)methanesulfonamide] | < 0.3 | 621 µg/mL and 1600 µM | – | – | – |
| CS(=O)(=O)N(C[C@@H]1CCCN1)C1(c2ccc(F)c(C(F)(F)F)c2)CC1 [(S)-N-(1-(4-fluoro-3-(trifluoromethyl)phenyl)cyclopropyl)-N-(pyrrolidin-2-ylmethyl) methanesulfonamide] | < 1 | – | 0.3218 | 800 | – |
| O=C(OC1CC1)N(C[C@@H]1CCCN1)C1(c2ccc(F)c(C(F)(F)F)c2)CC1 [Cyclopropyl (S)-(1-(4-fluoro-3-(trifluoromethyl)phenyl)cyclopropyl)(pyrrolidin-2-ylmethyl)carbamate] | < 0.3 | 601 µg/mL and 1600 µM | – | – | – |
| CCOC(=O)N(CC(C)(C)N)C1(c2ccc(F)c(C(F)(F)F)c2)CC1 [Ethyl (2-amino-2-methylpropyl)(1-(4-fluoro-3-(trifluoromethyl)phenyl)cyclopropyl)carbamate] | < 0.3 | 607 µg/mL and 1500 µM | – | – | – |
| CCOC(=O)N(C[C@H]1CCCN1)C1(c2ccc(F)c(C(F)(F)F)c2)CC1 [Ethyl (R)-(1-(4-fluoro-3-(trifluoromethyl)phenyl)cyclopropyl)(pyrrolidin-2-ylmethyl)carbamate] | < 0.3 | 616 µg/mL and 1500 µM | – | – | – |
| CCOC(=O)N(C[C@@H]1CCCN1C)C1(c2ccc(F)c(C(F)(F)F)c2)CC1 [Ethyl (S)-(1-(4-fluoro-3-(trifluoromethyl)phenyl)cyclopropyl)((1-methylpyrrolidin-2-yl)methyl) carbamate] | < 0.3 | – | 0.5679 | 1500 | – |
| CCOC(=O)N(C[C@@H]1CCCN1)C1(c2ccc(F)c(C(F)(F)F)c2)CC1 [Ethyl (S)-(1-(4-fluoro-3-(trifluoromethyl)phenyl)cyclopropyl)(pyrrolidin-2-ylmethyl)carbamate] | < 0.3 | 594 µg/mL and 1400 µM | – | – | – |
| CC(C)OC(=O)N(C[C@@H]1CCCN1)C1(c2ccc(F)c(C(F)(F)F)c2)CC1 [Isopropyl (S)-(1-(4-fluoro-3-(trifluoromethyl)phenyl)cyclopropyl)(pyrrolidin-2-ylmethyl)carbamate] | < 0.3 | 615 µg/mL and 1600 µM | – | – | – |
| COC(=O)N1CC(N(C(=O)OC)C2(c3ccc(F)c(C(F)(F)F)c3)CC2)C1 [Methyl 3-((1-(4-fluoro-3-(trifluoromethyl)phenyl)cyclopropyl) (methoxycarbonyl)amino)azetidine-1-carboxylate] | < 0.3 | 27.9 µg/mL and 100 µM | – | – | – |
| COC(=O)N(CC(C)(C)NO)C1(c2ccc(F)c(C(F)(F)F)c2)CC1 [Methyl (1-(4-fluoro-3-(trifluoromethyl)phenyl)cyclopropyl)(2-(hydroxyamino)-2-methylpropyl)carbamate] | < 0.3 | 138 µg/mL and 400 µM | – | – | – |
| COC(=O)N(CC1CCN1C)C1(c2ccc(F)c(C(F)(F)F)c2)CC1 (stereo not drawn) [Methyl (1-(4-fluoro-3-(trifluoromethyl)phenyl)cyclopropyl)((1-methylazetidin-2-yl)methyl)carbamate] | < 0.3 | 598 µg/mL and 1700 µM | – | – | – |
| COC(=O)N(CC(C)(C)NC(C)=O)C1(c2ccc(F)c(C(F)(F)F)c2)CC1 [Methyl (2-acetamido-2-methylpropyl)(1-(4-fluoro-3-(trifluoromethyl)phenyl)cyclopropyl)carbamate] | < 1 | 596 µg/mL and 1500 µM | – | – | – |
| COC(=O)N(CC(C)(C)N)C1(c2cc(Cl)cc(Cl)c2)CC1 [Methyl (2-amino-2-methylpropyl)(1-(3,5-dichlorophenyl)cyclopropyl)carbamate] | < 0.3 | 578 µg/mL and 1600 µM | – | – | – |
| COC(=O)N(CC(C)(C)N)C1(c2cccc(C(F)(F)F)c2)CC1 [Methyl (2-amino-2-methylpropyl)(1-(3-(trifluoromethyl)phenyl)cyclopropyl)carbamate] | < 0.3 | 526 µg/mL and 1400 µM | – | – | – |
| COC(=O)N(CC(C)(C)N)C1(c2cccc(Br)c2)CC1 [Methyl (2-amino-2-methylpropyl)(1-(3-bromophenyl)cyclopropyl)carbamate] | < 1 | 376 µg/mL and 800 µM | – | – | – |
| COC(=O)N(CC(C)(C)N)C1(c2cccc(Cl)c2)CC1 [Methyl (2-amino-2-methylpropyl)(1-(3-chlorophenyl)cyclopropyl)carbamate] | < 1 | 634 µg/mL and 1500 µM | – | – | – |
| COC(=O)N(CC(C)(C)N)C1(c2ccc(F)c(OC(F)(F)F)c2)CC1 [Methyl (2-amino-2-methylpropyl)(1-(4-fluoro-3-(trifluoromethoxy)phenyl)cyclopropyl)carbamate] | < 0.3 | 584 µg/mL and 1500 µM | – | – | – |
| O=C1CSc2ccccc2N1Cc1cccc(C(F)(F)F)c1 [NS6180, 4-[[3-(Trifluoromethyl)-phenyl]methyl]-2H-1,4-benzothiazin-3(4H)-one, reference compound] | – | 2.8 µM and 0.9 µg/mL | – | – | 2.8 |
| COC(=O)N(CC(C)(C)N)C1(c2ccc(F)c(C(F)(F)F)c2)CCC1 [methyl N-(2-amino-2-methylpropyl)-N-{1-[4-fluoro-3-(trifluoromethyl)phenyl]cyclobutyl}carbamate] | < 0.3 | – | – | – | – |
| COC(=O)N(C[C@H]1CCCN1)C1(c2ccc(F)c(C(F)(F)F)c2)CCC1 [methyl N-{1-[4-fluoro-3-(trifluoromethyl)phenyl]cyclobutyl}-N-{[(2R)-pyrrolidin-2-yl]methyl}carbamate] | < 0.3 | – | – | – | – |
| COC(=O)N(C[C@@H]1CCCN1)C1(c2ccc(F)c(C(F)(F)F)c2)CCC1 [methyl N-{1-[4-fluoro-3-(trifluoromethyl)phenyl]cyclobutyl}-N-{[(2S)-pyrrolidin-2-yl]methyl}carbamate] | < 0.3 | – | – | – | – |
| COC(=O)N(C[C@H]1CCCN1)C1(c2cccc(C(F)(F)F)c2)CCC1 [methyl N-{[(2R)-pyrrolidin-2-yl]methyl}-N-{1-[3-(trifluoromethyl)phenyl]cyclobutyl}carbamate] | < 0.3 | – | – | – | – |
| COC(=O)N(C[C@@H]1CCCN1)C1(c2cccc(C(F)(F)F)c2)CCC1 [methyl N-{[(2S)-pyrrolidin-2-yl]methyl}-N-{1-[3-(trifluoromethyl)phenyl]cyclobutyl}carbamate] | < 0.3 | – | – | – | – |
